Test results reported in patent US20210087172A1, “FACTOR XIIa INHIBITORS” (UNIVESITY OF LEEDS, priority 2018, published 2021).

Key:
Assay type in all cases: biochemical
FXIIa alpha (Human) = target: T1, FXIIa alpha (Human) (Homo sapiens, UniProt P00748); assay: Determination of Factor XIIa inhibition, chromogenic substrate S-2302; settings: 10 nM FXIIa, 450 μM S-2302, 37° C., pH 7.4; Ki converted from IC50
T1 construct: FXIIa alpha
T1 sequence (P00748 373-615 limits assumed): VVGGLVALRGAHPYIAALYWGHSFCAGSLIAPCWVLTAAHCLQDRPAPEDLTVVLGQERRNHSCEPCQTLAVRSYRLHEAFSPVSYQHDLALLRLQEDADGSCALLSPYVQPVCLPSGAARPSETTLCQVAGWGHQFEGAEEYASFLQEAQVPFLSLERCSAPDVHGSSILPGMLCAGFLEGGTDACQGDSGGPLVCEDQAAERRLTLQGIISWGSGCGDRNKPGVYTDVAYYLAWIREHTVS
T1 sequence (P00748 20-372 partner limits assumed): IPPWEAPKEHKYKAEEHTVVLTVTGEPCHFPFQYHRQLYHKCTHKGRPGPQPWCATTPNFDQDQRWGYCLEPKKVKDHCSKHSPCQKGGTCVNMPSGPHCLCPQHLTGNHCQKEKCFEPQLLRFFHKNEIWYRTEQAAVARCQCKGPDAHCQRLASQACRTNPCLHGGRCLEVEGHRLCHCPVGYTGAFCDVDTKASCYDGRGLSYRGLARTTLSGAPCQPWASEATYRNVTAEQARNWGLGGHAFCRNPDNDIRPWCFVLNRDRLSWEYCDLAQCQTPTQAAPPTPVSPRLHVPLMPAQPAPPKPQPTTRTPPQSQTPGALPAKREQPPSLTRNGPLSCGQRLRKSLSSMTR
Method: (§1) The activities of the compounds of the invention have been determined in vitro using the following assays protocols for the screening of activity of FXIa and other proteases. Each of these assays were performed in a purified system employing the use of chromogenic assays in microplate plate wells. Chromogenic peptide substrates mimicking natural protein substrates are attached via an amide bond to a chromogenic group. Paranitroaniline (pNA) is released from the peptide following catalyses by the proteolytic enzyme; the absorbance increases and can be monitored at 405 nm.
(§2) All compounds were dissolved in 100% (v/v) DMSO to a stock concentration of 10 mM, the highest concentration of compound used in each assay is 500 μM. The final concentrations of DMSO were 5% (v/v) in 50 mM Tris 137 mM NaCl pH 7.4. Where no test compound was added a final concentration of 5% DMSO was employed.
[…] activity was measured using a chromogenic substrate S-2302 (Chromogenix). Various concentrations of compound were incubated with 10 nM of FXIIa and incubated at 37° C. for 10 minutes in 50 mM Tris, 137 mM NaCl, pH 7.4, prior to the addition of a final concentration of 450 μM S-2302 chromogenic substrate. Kinetic readings at 405 nm were monitored every 12 secs for a total duration of 3 hours at 37° C. Gradients of initial rates were determined and employed to calculate IC50 values. Values of IC50 were converted to Ki values based on the formula:
(§3) Ki=IC50/(1+[Substrate]/Km)
The activity of the compounds of the invention has been categorised based on the Ki values, the categories being “*”, “**” and “***”. […] The category refers to compounds with a Ki value of 0.2 μM to 2 μM.

Thrombin (human) = target: T2, Thrombin (human) (Homo sapiens, UniProt P00734); assay: Determination of selectivity: thrombin chromogenic assay (GPR substrate); settings: fold selectivity for FXIIa over thrombin; thrombin 5 nM, GPR 250 μM
T2 construct: FXa (5 nM) and thrombin (5 nM)
Method: as §1, §2
(§4) To determine selectivity of test compounds, these test compounds were assayed for inhibitory activity against other serine proteases including FXa and thrombin. Essentially compounds at increasing concentrations were incubated with each enzyme: FXa (5 nM) and thrombin (5 nM), for 10 mins at 37° C. followed the appropriate chromogenic substrate, S2765 (350 μM), and GPR (250 μM) respectively in 50 mM Tris, 137 mM NaCl, pH 7.4. Chromogenic substrates S2765 was from Chromogenix, and GPR from Bachem. Kinetic readings at 405 nm were monitored every 12 secs for a total duration of 3 hours at 37° C. Gradients of initial rates were determined and employed to calculate IC50 values. Values of IC50 were converted to Ki values based on the formula:
as §3
(§5) Where [Substrate] denotes the concentration of substrate used in the assay and Km is the determined value of each enzyme with its own substrate.
The fold selectivity for FXIIa over thrombin for the compounds of the invention has been categorised based on the fold selectivity values, the categories being “+”, “++” and “+++”. The category “+” refers to fold selectivity values less than 10. The category “++” refers to a fold selectivity value of 10 to 100. The category “+++” refers to fold selectivity values greater than 100.

FXa (human) = FXa (human) (Homo sapiens, UniProt P00742); assay: Determination of selectivity: FXa chromogenic assay (S2765 substrate); settings: fold selectivity for FXIIa over FXa; FXa 5 nM, S2765 350 μM
FXa (human), sequence (P00742 235-488 limits assumed): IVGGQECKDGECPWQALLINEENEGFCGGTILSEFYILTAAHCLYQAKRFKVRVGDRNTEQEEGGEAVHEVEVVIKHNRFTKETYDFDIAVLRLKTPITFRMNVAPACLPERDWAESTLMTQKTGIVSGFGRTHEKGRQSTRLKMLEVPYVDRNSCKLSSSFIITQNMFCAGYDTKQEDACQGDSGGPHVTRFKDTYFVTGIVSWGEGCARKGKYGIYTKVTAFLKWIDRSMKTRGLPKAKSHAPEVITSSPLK
FXa (human), sequence (P00742 41-179 partner limits assumed): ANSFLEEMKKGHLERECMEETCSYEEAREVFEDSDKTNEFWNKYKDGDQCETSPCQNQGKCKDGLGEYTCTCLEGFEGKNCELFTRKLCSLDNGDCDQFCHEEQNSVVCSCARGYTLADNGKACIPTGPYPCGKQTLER
Method: as §1, §2, §4, §3, §5
The fold selectivity for FXIIa over FXa for the compounds of the invention has been categorised based on the fold selectivity values, the categories being “o”, “oo” and “ooo”. The category “o” refers to fold selectivity values less than 10. The category “oo” refers to a fold selectivity value of 10 to 100. The category “ooo” refers to fold selectivity values greater than 100.

Compound | Ki (FXIIa alpha (Human)) [µM] | Thrombin (human)/FXIIa alpha (human) fold selectivity (Thrombin (human)) | FXa (human)/FXIIa alpha (human) fold selectivity (FXa (human))
N=C(N)c1ccc(CNC(=O)C2CCCCN2C(=O)C(CCc2ccccc2)NS(=O)(=O)Cc2ccccc2)cc1 (stereo not shown) [Compound M00556] | 0.2 to 2 | + (fold selectivity values less than 10) | o (fold selectivity values less than 10)
Nc1cc(CNC(=O)[C@@H]2CN(C(=O)OCc3ccccc3)CCN2C(=O)[C@H](N)CCc2ccccc2)ccn1 [Compound M00832] | > 2 | ++ (a fold selectivity value of 10 to 100) | oo (a fold selectivity value of 10 to 100)
CN(C)[C@H](CCc1ccccc1)C(=O)N1CCN(C(=O)OCc2ccccc2)C[C@H]1C(=O)NCc1ccnc(N)c1 [Compound M00833] | > 2 | ++ (a fold selectivity value of 10 to 100) | oo (a fold selectivity value of 10 to 100)
COc1cc(CNC(=O)[C@@H]2CN(C(=O)OCc3ccccc3)CCN2C(=O)[C@H](N)CCc2ccccc2)ccc1CN [Compound M00834] | < 0.2 | +++ (fold selectivity values greater than 100) | ooo (fold selectivity values greater than 100)
NCc1ccc(CNC(=O)C2CN(c3ccccc3)CCN2C(=O)C(N)CCc2ccccc2)cc1 (stereo not shown) [Compound M00836] | > 2 |  | 
CS(=O)(=O)N1CCN(C(=O)[C@H](N)CCc2ccccc2)[C@H](C(=O)NCc2ccc(CN)cc2)C1 [Compound M00838, (2S)-1-[(2R)-2-amino-4-phenylbutanoyl]-N-{[4-(aminomethyl)phenyl]methyl}-4-methanesulfonylpiperazine-2-carboxamide] | > 2 | + (fold selectivity values less than 10) | o (fold selectivity values less than 10)
NCc1ccc(CNC(=O)C2CN(C(=O)CCc3ccccc3)CCN2C(=O)C(N)CCc2ccccc2)cc1 (stereo not shown) [Compound M00840] | > 2 |  | 
NCc1ccc(CNC(=O)C2CN(S(=O)(=O)CCc3ccccc3)CCN2C(=O)C(N)CCc2ccccc2)cc1 (stereo not shown) [Compound M00842] | > 2 |  | 
NCc1ccc(CNC(=O)C2CN(C(=O)Cc3ccccc3)CCN2C(=O)C(N)CCc2ccccc2)cc1 (stereo not shown) [Compound M00843] | > 2 | +++ (fold selectivity values greater than 100) | oo (a fold selectivity value of 10 to 100)
NCc1ccc(CNC(=O)C2CN(C(=O)c3ccccc3)CCN2C(=O)C(N)CCc2ccccc2)cc1 (stereo not shown) [Compound M00844] | > 2 |  | 
NCc1ccc(CNC(=O)C2CN(C(=O)NCc3ccccc3)CCN2C(=O)C(N)CCc2ccccc2)cc1 (stereo not shown) [Compound M00847] | > 2 |  | 
CN(C)C(=O)N1CCN(C(=O)C(N)CCc2ccccc2)C(C(=O)NCc2ccc(CN)cc2)C1 (stereo not shown) [Compound M00848] | > 2 |  | 
CC(=O)N1CCN(C(=O)C(N)CCc2ccccc2)C(C(=O)NCc2ccc(CN)cc2)C1 (stereo not shown) [Compound M00850] | > 2 |  | 
Cc1cc(CNC(=O)[C@@H]2CN(C(=O)OCc3ccccc3)CCN2C(=O)[C@H](N)CCc2ccccc2)cc(N)n1 [Compound M00858] | > 2 | ++ (a fold selectivity value of 10 to 100) | oo (a fold selectivity value of 10 to 100)
CC(C(=O)N1CCN(C(=O)C(N)CCc2ccccc2)C(C(=O)NCc2ccc(CN)cc2)C1)c1ccccc1 (stereo not shown) [Compound M00859] | > 2 |  | 
NCc1ccc(CNC(=O)C2CNCCN2C(=O)C(N)CCc2ccccc2)cc1 (stereo not shown) [Compound M00862] | > 2 |  | 

Compound | Ki (FXIIa alpha (Human)) [µM] | Thrombin (human)/FXIIa alpha (human) fold selectivity (Thrombin (human)) | FXa (human)/FXIIa alpha (human) fold selectivity (FXa (human))
Cn1nnc2cc(CNC(=O)[C@@H]3CN(C(=O)Oc4ccccc4)CCN3C(=O)[C@H](N)CCc3ccccc3)ccc21 [Compound M00871] | > 2 | ++ (a fold selectivity value of 10 to 100) | oo (a fold selectivity value of 10 to 100)
C#CCOC(=O)N1CCN(C(=O)C(N)CCc2ccccc2)C(C(=O)NCc2ccc3c(c2)nnn3C)C1 (stereo not shown) [Compound M00880] | > 2 |  | 
Cn1ccnc1COC(=O)N1CCN(C(=O)C(N)CCc2ccccc2)C(C(=O)NCc2ccc3c(c2)nnn3C)C1 (stereo not shown) [Compound M00883] | > 2 |  | 
Cn1nnc2cc(CNC(=O)C3CN(c4ncccn4)CCN3C(=O)C(N)CCc3ccccc3)ccc21 (stereo not shown) [Compound M00891] | > 2 |  | 
COc1ccc(OC(=O)N2CCN(C(=O)[C@H](N)CCc3ccccc3)[C@H](C(=O)NCc3ccc4c(c3)nnn4C)C2)cc1 [Compound M00932] | > 2 | ++ (a fold selectivity value of 10 to 100) | oo (a fold selectivity value of 10 to 100)
Cn1nnc2cc(CNC(=O)[C@@H]3CN(C(=O)Oc4ccc(Cl)cc4)CCN3C(=O)[C@H](N)CCc3ccccc3)ccc21 [Compound M00933] | > 2 | ++ (a fold selectivity value of 10 to 100) | oo (a fold selectivity value of 10 to 100)
Cn1nnc2cc(CNC(=O)[C@@H]3CN(c4ccc5ncccc5c4)CCN3C(=O)[C@H](N)CCc3ccccc3)ccc21 [Compound M00940, (2S)-1-[(2R)-2-amino-4-phenylbutanoyl]-N-[(1-methyl-1H-1,2,3-benzotriazol-5-yl)methyl]-4-(quinolin-6-yl)piperazine-2-carboxamide] | > 2 |  | 
Cn1nnc2cc(CNC(=O)C3CN(C(=O)OCc4ccc(Cl)cc4)CCN3C(=O)C(N)CCc3ccccc3)ccc21 (stereo not shown) [Compound M00942] | > 2 |  | 
NCc1ccc(CNC(=O)C2CC(O)CCN2C(=O)C(N)CCc2ccccc2)cc1 (stereo not shown) [Compound M05071] | > 2 |  | 
NC(CCC(=O)N1CCCC1)C(=O)N1CCN(C(=O)OCc2ccccc2)CC1C(=O)NCc1ccnc(O)c1 (stereo not shown) [Compound M05263] | > 2 |  | 
Cn1nnc2cc(CNC(=O)C3CN(C(=O)OCc4ccccc4)CCN3C(=O)C(N)C3Cc4ccccc4C3)ccc21 (stereo not shown) [Compound M05273] | > 2 |  | 
NC(CCC(=O)N1CCCC1)C(=O)N1CCN(C(=O)OCc2ccccc2)CC1C(=O)NCc1ccc2cnccc2c1 (stereo not shown) [Compound M05275] | > 2 |  | 
NC(CCC(=O)N1CCCC1)C(=O)N1CCN(C(=O)OCc2ccccc2)CC1C(=O)NCc1ccc2cnc(O)cc2c1 (stereo not shown) [Compound M05277] | > 2 | ++ (a fold selectivity value of 10 to 100) | 
Cn1nnc2cc(CNC(=O)C3CN(C(=O)OCc4ccccc4)CCN3C(=O)C(N)c3cc4ccccc4o3)ccc21 (stereo not shown) [Compound M05286] | > 2 |  | 
Cc1cc2cc(CNC(=O)C3CN(C(=O)OCc4ccccc4)CCN3C(=O)C(N)CCC(=O)N3CCCC3)ccc2cn1 (stereo not shown) [Compound M05292] | > 2 |  | 
